# Measured values from patent publication US11591352B2, “Method for treatment of senescence-related disorders” (SPRINGTIDE VENTURES S.R.O., priority 2016, dated 2023).
# Read-outs that look alike come from different tables or passages of the source.
# Legend:
# [1] = tested on: control retinal pigment epithelial cells (RPE); experiment: Viability (annexin V/Hoechst) of control RPE cells; assay type: cell-based; conditions: for % of Annexin V-/Hoechst-cells: ctrl
# Experimental: (§3) The effect of compounds 7, 8, 10, 15 on primary senescent cells (retinal pigment epithelial cells (RPE) treated for 8 days with 100 μM 5-bromo-2-deoxyuridine (BrdU)) was tested.
# [2] = tested on: senescent retinal pigment epithelial cells (RPE) treated with BrdU; experiment: Viability (annexin V/Hoechst) of senescent RPE cells; conditions: for % of Annexin V-/Hoechst-cells: BrdU; for selectivity of cytotoxicity for senescent versus control cells (in words): senescent (BrdU) vs control RPE cells
# Experimental: as §3
# [3] = tested on: senescent retinal pigment epithelial cells (RPE) treated with BrdU
# Experimental: as §3
# [4] = tested on: p16, p21 and PAI mRNA in FVB/cneu spontaneous tumours; experiment: qRT PCR of senescent markers in spontaneous tumours; assay type: in vivo, FVB mice
# BxPC-3 (senescent) = experiment: Viability (Annexin V/Hoechst) of senescent pancreatic cells; assay type: cell-based; conditions: 48 h
# Experimental: (§1) We tested the effect of compound 8 on cultured senescent pancreatic cells. We used three pancreatic cell lines (PANC-1, PaTu and BxPC-3) exposed to 100 μM BrdU for 6 days to induce senescence. These senescent cells were treated with different doses of compound 8 for 48 h and their viability was assessed. […] RPE cells, as the most sensitive tested cells, were used as a control to establish the concentration at which compound 8 is not toxic for non-senescent cells.
# PaTu (senescent) = experiment: as above; assay type: cell-based; conditions: 48 h
# Experimental: as §1
# PANC-1 (senescent) = experiment: as above; assay type: cell-based; conditions: 48 h
# Experimental: as §1
# RPE (control) = experiment: Viability (Annexin V/Hoechst) of non-senescent control cells; assay type: cell-based; conditions: 48 h
# Experimental: as §1
# [5] = tested on: p16 and p21 mRNA in PDX (triple-negative breast tumour); experiment: qRT PCR of senescence markers in patient-derived xenografts; assay type: in vivo, NOD scid gamma mice
# Experimental: Importantly, we repeated this experiment using patient-derived xenografts (PDXs; triple-negative breast tumour) transplanted into NOD scid gamma mice and treated with compound 8 (0.375 mg of compound 8/mouse, twice per week for a period of 2-3 weeks).
# [6] = tested on: p16, p21 and plasminogen activator inhibitor (PAI) mRNA; experiment: qRT PCR of senescent markers in organs of young and old FVB mice; assay type: in vivo
# [7] = tested on: RPE cells (siNC / siANT2); experiment: Viability of RPE cells after ANT2 downregulation by siRNA; assay type: cell-based
# Source text: (§2) Adenin nucleotid translocase 2 (ANT2) is a protein important for translocation of ATP from cytoplasm to mitochondria unlike two other members of ANT family, ANT1 and ANT3, participating in classical transfer of ADP into mitochondria via complex V during mitochondrial respiration. ANT2 plays a key role in maintenance of mitochondrial potential and in preserving intact mitochondria, especially in tumour cells. […] All these experiments show a key role of ANT2 in compound 8 resistance.
# [8] = tested on: B-gal positive (senescent) cells in lungs; experiment: B-gal staining of lungs of young and naturally old FVB mice treated with compound 8; assay type: in vivo; conditions: for % of B-gal positive cells: 1 μg/g every week for 4 weeks
# Experimental: We first analyzed the presence of senescent cells (using B-galactosidase (B-gal) staining) in organs in these two groups. From all tested organs (lungs, brain, white adipose tissue and stomach), we detected the biggest difference in presence of B-gal-positive cells in lungs (not shown). In the next step we treated the mice (6×19 month old mice+6×2 month old mice) with 1 dose of compound 8 (1 μg of compound 8/1 g mouse) every week for a period of 4 weeks. Mice (5×19 month old mice+6×2 month old mice) treated only with a corn oil without compound 8 were used as a control. After 4 weeks we removed lungs and detected percentage of B-gal positive cells in the tissues.
# [9] = tested on: RPE cells with inducible ANT2; experiment: Viability of RPE cells transfected with inducible ANT2; assay type: cell-based
# Source text: as §2
# [10] = tested on: p16, p21 and PAI mRNA in 4T1 cell-derived tumours; experiment: qRT PCR of senescent markers in 4T1 cell-derived tumours; assay type: in vivo, Balb-c mice
# RPE cells = experiment: Lactate production in RPE cells; assay type: cell-based
# Source text: as §2
# [11] = FVB/cneu tumors, treated, 0.2 mg/mouse twice per week for 2-3 weeks
# [12] = PDX tumors, treated, 0.375 mg/mouse twice per week for 2-3 weeks
# [13] = BALBe/4T1 tumors, treated, 0.2 mg/mouse twice per week for 2-3 weeks
compound,measurement,setting,value
CC/C(=C(\c1ccccc1)c1ccc(OCCN(C)C)cc1)c1ccccc1 [Tamoxifen],% of Annexin V-/Hoechst-cells,[1]; 1 μM,97.0%
same,% of Annexin V-/Hoechst-cells,[1]; 2.5 μM,96.7%
same,% of Annexin V-/Hoechst-cells,[1]; 5 μM,94.7%
same,% of Annexin V-/Hoechst-cells,[1]; 10 μM,55.8%
same,% of Annexin V-/Hoechst-cells,[1]; 20 μM,2.15%
same,decrease of viability (in words),"[2]; 10 μM, both senescent and control cells",by about half
same,cytotoxicity (in words),"[2]; 20 μM, both senescent and control cells",highly cytotoxic
same,% of Annexin V-/Hoechst-cells,[2]; 1 μM,73.8%
same,% of Annexin V-/Hoechst-cells,[2]; 2.5 μM,73.0%
same,% of Annexin V-/Hoechst-cells,[2]; 5 μM,70.1%
same,% of Annexin V-/Hoechst-cells,[2]; 10 μM,33.8%
same,% of Annexin V-/Hoechst-cells,[2]; 20 μM,4.3%
same,selectivity of cytotoxicity for senescent versus control cells (in words),[2],does not at any tested concentration have a significantly higher toxicity for senescent cells than for control cells
same,cytotoxicity (in words),"[2]; up to 5 μM, senescent and control cells",does not show cytotoxicity
CN(C)CCOc1ccc(/C(=C(/CCCCCCCCCC[P+](c2ccccc2)(c2ccccc2)c2ccccc2)c2ccccc2)c2ccccc2)cc1.[Br-] [compound 8],selectivity of cytotoxicity for senescent versus control cells (in words),[3],selectively more cytotoxic to senescent cells
same,"increase of senescent markers p16, p21 and PAI on the mRNA level (in words)","[4]; FVB mice with spontaneous tumours, 0.2 mg/mouse twice per week, 2-3 weeks",did not observe any increase
same,PAI mRNA fold change,[4]; [11],1.93 (+/− 1.19) fold change
same,p16 mRNA fold change,[4]; [11],0.39 (+/− 0.24) fold change
same,p21 mRNA fold change,[4]; [11],1.94 (+/− 1.43) fold change
same,% of AnnexinV-/Hoechst-cells,BxPC-3 (senescent); 0.1 μM,47.7 (+/− 0.49) %
same,% of AnnexinV-/Hoechst-cells,BxPC-3 (senescent); 0.5 μM,35.9 (+/− 6.22) %
same,% of AnnexinV-/Hoechst-cells,BxPC-3 (senescent); 1 μM,4.8 (+/− 0.83) %
same,% of AnnexinV-/Hoechst-cells,BxPC-3 (senescent); 2.5 μM,3.9 (+/− 1.69) %
same,% of AnnexinV-/Hoechst-cells,PaTu (senescent); 0.1 μM,24.7 (+/− 3.25) %
same,% of AnnexinV-/Hoechst-cells,PaTu (senescent); 0.5 μM,10.3 (+/− 0.97) %
same,% of AnnexinV-/Hoechst-cells,PaTu (senescent); 1 μM,3.6 (+/− 3.24) %
same,% of AnnexinV-/Hoechst-cells,PaTu (senescent); 2.5 μM,2.4 (+/− 1.21) %
same,% of AnnexinV-/Hoechst-cells,PANC-1 (senescent); 0.1 μM,92.3 (+/− 0.78) %
same,% of AnnexinV-/Hoechst-cells,PANC-1 (senescent); 0.5 μM,92.7 (+/− 1.27) %
same,% of AnnexinV-/Hoechst-cells,PANC-1 (senescent); 1 μM,5.0 (+/− 1.97) %
same,% of AnnexinV-/Hoechst-cells,PANC-1 (senescent); 2.5 μM,3.1 (+/− 0.68) %
same,% of AnnexinV-/Hoechst-cells,RPE (control); 0.1 μM,98.9 (+/− 0.14) %
same,% of AnnexinV-/Hoechst-cells,RPE (control); 0.5 μM,98.8 (+/− 0.21) %
same,% of AnnexinV-/Hoechst-cells,RPE (control); 1 μM,98.3 (+/− 0.14) %
same,% of AnnexinV-/Hoechst-cells,RPE (control); 2.5 μM,99.1 (+/− 0.35) %
same,effect on control cells (in words),[1]; control RPE,without any effect on control cells
same,% of Annexin V-/Hoechst-cells,[1]; 1 μM,93.0%
same,% of Annexin V-/Hoechst-cells,[1]; 2.5 μM,90.3%
same,% of Annexin V-/Hoechst-cells,[1]; 5 μM,3.1%
same,increase of senescence markers (in words),"[5]; PDX in NOD scid gamma mice, 0.375 mg/mouse twice per week, 2-3 weeks",no increase
same,p2l mRNA fold change,[5]; [12],0.72 (+/− 0.84) fold change
same,p16 mRNA fold change,[5]; [12],1.34 (+/− 1.25) fold change
same,PAI mRNA fold change,"[6]; kidney, 2 m treated",0.47 (+/− 0.09) fold change
same,p16 mRNA fold change,"[6]; kidney, 2 m treated",0.02 (+/− 0.01) fold change
same,p21 mRNA fold change,"[6]; kidney, 2 m treated",0.25 (+/− 0.05) fold change
same,PAI mRNA fold change,"[6]; kidney, 19 m treated",0.79 (+/− 0.17) fold change
same,p16 mRNA fold change,"[6]; kidney, 19 m treated",0.79 (+/− 0.31) fold change
same,p21 mRNA fold change,"[6]; kidney, 19 m treated",0.34 (+/− 0.11) fold change
same,PAI mRNA fold change,"[6]; lungs, 2 m treated",0.69 (+/− 0.12) fold change
same,p16 mRNA fold change,"[6]; lungs, 2 m treated",0.63 (+/− 0.07) fold change
same,p21 mRNA fold change,"[6]; lungs, 2 m treated",0.30 (+/− 0.06) fold change
same,PAI mRNA fold change,"[6]; lungs, 19 m treated",0.93 (+/− 0.22) fold change
same,p16 mRNA fold change,"[6]; lungs, 19 m treated",0.74 (+/− 0.12) fold change
same,p21 mRNA fold change,"[6]; lungs, 19 m treated",0.39 (+/− 0.03) fold change
same,"level of senescent markers p16, p21, PAI mRNA after treatment (in words)",[6]; old mouse tissue,decreased almost to control levels
same,% of AnnexinV-/Hoechst-cells,[7]; RPE siANT2 treated,20.7%
same,% of AnnexinV-/Hoechst-cells,[7]; RPE siNC treated,90.5%
same,death of control cells with downregulated ANT2 after treatment (in words),"[7]; RPE, ANT2 siRNA",increased death of these cells
same,% of B-gal positive cells,[8]; 2 month old mice,0.3%
same,% of B-gal positive cells,[8]; 19 month old mice,0.7%
same,number of B-gal-positive cells after treatment (in words),[8]; old mice,decrease of their number
same,resistance of senescent cells with induced ANT2 towards treatment (in words),[9]; RPE BrdU + ANT2,increased resistance
same,% of AnnexinV-/Hoechst-cells,[9]; RPE BrdU + ANT2 treated,53.8%
same,% of AnnexinV-/Hoechst-cells,[9]; RPE BrdU treated,6.8%
same,% of AnnexinV-/Hoechst-cells,[9]; RPE ctrl + ANT2 treated,95.2%
same,% of AnnexinV-/Hoechst-cells,[9]; RPE ctrl treated,95.0%
same,PAI mRNA fold change,[10]; [13],0.59 (+/− 0.22) fold change
same,p16 mRNA fold change,[10]; [13],0.20 (+/− 0.08) fold change
same,p21 mRNA fold change,[10]; [13],0.77 (+/− 0.18) fold change
same,"increase of senescent markers p16, p21 and PAI on the mRNA level (in words)","[10]; Balb-c mice with 4T1 tumours, 0.2 mg/mouse twice per week, 2-3 weeks",did not observe any increase
same,Lactate production (fold induction),RPE cells; RPE BrdU (senescent) treated,8.2 fold induction
same,Lactate production (fold induction),RPE cells; RPE ctrl treated,1.6 fold induction
same,% of Annexin V-/Hoechst-cells,[2]; 1 μM,67.0%
same,% of Annexin V-/Hoechst-cells,[2]; 2.5 μM,13.9%
same,% of Annexin V-/Hoechst-cells,[2]; 5 μM,0.8%
same,effect on elimination of senescent cells (in words),"[2]; RPE, 100 μM BrdU for 8 days",specific effect on elimination of senescent cells
CN(C)CCOc1ccc(/C(=C(/CCCCCCCCCCBr)c2ccccc2)c2ccccc2)cc1 [compound 7],% of Annexin V-/Hoechst-cells,[1]; 0.05 μM,94.6%
same,% of Annexin V-/Hoechst-cells,[1]; 0.1 μM,95.1%
same,% of Annexin V-/Hoechst-cells,[1]; 0.5 μM,91.4%
same,% of Annexin V-/Hoechst-cells,[2]; 0.05 μM,80.5%
same,% of Annexin V-/Hoechst-cells,[2]; 0.1 μM,78.3%
same,% of Annexin V-/Hoechst-cells,[2]; 0.5 μM,55.3%
same,selectivity of cytotoxicity for senescent versus control cells (in words),[2],selectively more cytotoxic to senescent cells
